{"source": "patent US5314908A", "about": "“Compounds useful as antiproliferative agents” (Whitby Research, Inc., priority 1992, dated 1994)", "key": {"[1]": {"details": "Frohn et al.; Clemens et al.; cited from earlier work"}, "[2]": {"tested_on": "MCF-7 cells", "test": "growth inhibition of estrogen positive human breast cancer cell line MCF-7 in culture", "assay_type": "cell-based", "details": "for inhibition of MCF-7 cell growth, by concentration: 10^-15 M to 10^-5 M, inhibitory = proliferation decreased by 20% or more vs controls; for comparative assessment of potency / maximal inhibition, MCF-7 cell growth: summary statement; for potency relative to melatonin (times more potent), MCF-7 cell growth: compared with melatonin IC50", "method": "(§1) The above examples were tested for their ability to inhibit the growth of both estrogen positive (MCF-7) and estrogen negative (Hs0578t) human breast cancer cell lines in culture. […] MCF-7 cells were maintained in Dulbecco's modified Eagle's medium (DMEM), supplemented with 10% fetal bovine serum (FBS), penicillin (10,000 units/ml) and streptomycin (10 mg/ml) at 37° C. in a humidified atmosphere containing 5% CO2. Hs0578t cells were maintained under similar conditions, however DMEM containing high glucose was used and 10 ug/ml of insulin was added to the medium. Prior to each experiment, cells from stock flasks were suspended by treatment with 0.2% EDTA in phosphate buffered saline (pH 7.3). The cells were then centrifuged at 1000 rpm for 7 minutes, then resuspended in fresh medium and counted on a hemocytometer. Cells were adjusted to a density of 3.0×10^6 /plate in 5 mls of supplemented plating medium. After 5 hours, the plating medium was replaced with fresh medium containing either melatonin or the above examples in concentrations ranging from 10^-15 M to 10^-5 M. These compounds were initially dissolved in ethanol and diluted to the appropriate final concentration with DMEM; the final concentration of ethanol per plate was 0.005%. Control cells were exposed to the ethanol vehicle alone (0.005%). Five days after initial seeding, the cells were resuspended with PBS-EDTA and counted on a hemocytometer to determine the total cell counts per plate. Each experiment was run using triplicate plates for each concentration of melatonin or above example as well as the vehicle controls. Cell growth in each of the experimental plates was expressed as a percent of control growth (100%). A given concentration of either an above example or of melatonin was considered to be inhibitory if it decreased cell proliferation by 20% or more as compared with controls. Since most of the dose-response curves were irregular, the approximate IC50 for each example was estimated from a best fit (manually fitted) curve spanning from the 100% control growth level to the maximal inhibitory concentration of that example. Effects of the above examples on estrogen receptor positive and estrogen receptor negative human breast cancer cell lines (MCF-7 and Hs0578t, respectively) are summarized in FIGS. 1-15, and discussed below. FIGS. 1-6 summarize effects on the MCF-7 cell line, while FIGS. 7-15 describe effects on the Hs0578t cell line."}, "[3]": {"tested_on": "Hs0578t cells", "test": "growth inhibition of estrogen negative human breast cancer cell line Hs0578t in culture", "assay_type": "cell-based", "details": "for inhibition of Hs0578t cell growth, by concentration / pIC50: 10^-15 M to 10^-5 M; for inhibition of Hs0578t cell growth, by concentration: inhibitory = proliferation decreased by 20% or more vs controls; for pIC50: Homo sapiens, 120 h, approximate, estimated from manually fitted best fit curve, cell counts five days after seeding; for comparative assessment of potency / maximal inhibition, Hs0578t cell growth: summary statement", "method": "as §1"}, "[4]": {"tested_on": "frog skin", "details": "Heward and Hadley 1975; cited from earlier work"}, "[5]": {"tested_on": "chicken retina", "details": "Dubocovich 1984; cited from earlier work"}, "[6]": {"tested_on": "MCF-7 cells", "details": "reference molecule, known activity; cited from earlier work"}, "[7]": {"tested_on": "mammary tumors", "details": "melatonin administration; cited from earlier work"}, "[8]": {"tested_on": "Hs0578t cells", "details": "reference molecule, known activity; high concentrations; cited from earlier work"}}, "note": "pIC50: −log10 of the molar value. Entries after “also recorded” stand apart in the source; their conditions may differ.", "data": [{"smiles": "COc1cc2c(CCNC(C)=O)c(C)[nH]c2c(Cl)c1Cl", "note": "[2-methyl-6,7-dichloromelatonin]", "values": [{"measurement": "metabolic stability", "setting": "[1]", "result": "improved metabolic stability"}]}, {"smiles": "CC(=O)NCCn1c(C)ccc1C", "note": "[Example #1]", "values": [{"measurement": "inhibition of MCF-7 cell growth, by concentration", "setting": "[2]", "result": "all concentrations except 10^-11 M and 10^-7 M inhibited MCF-7 cell growth"}, {"measurement": "stimulation of Hs0578t cell growth", "setting": "[3]; 10^-9 M", "result": "cell growth is actually stimulated at 10^-9 M"}, {"measurement": "inhibition of Hs0578t cell growth, by concentration", "setting": "[3]", "result": "inhibition of Hs0578t cell growth only at 10^-5 M"}, {"measurement": "pIC50", "setting": "[3]", "result": "~8.22"}]}, {"smiles": "O=C(NCCc1c[nH]c2ccccc12)OCc1ccccc1", "note": "[Example #2, N-Benzyloxycarbonyltryptamine]", "values": [{"measurement": "inhibition of MCF-7 cell growth, by concentration", "setting": "[2]", "result": "inhibition of MCF-7 cell growth at all concentrations for Examples #2 and 9, with the exceptions of Example #2 at 10^-13 M"}, {"measurement": "comparative assessment of potency / maximal inhibition, MCF-7 cell growth", "setting": "[2]", "result": "elicits the best maximal inhibitory response; also recorded: highly potent inhibitor of both cell lines, but also induces in both a substantial inhibitory response at low concentrations"}, {"measurement": "inhibition of Hs0578t cell growth, by concentration", "setting": "[3]", "result": "inhibits Hs0578t cell growth at 10^-11 M and 10^-9 M"}, {"measurement": "comparative assessment of potency / maximal inhibition, Hs0578t cell growth", "setting": "[3]", "result": "highly potent inhibitor of both cell lines, but also induces in both a substantial inhibitory response at low concentrations"}]}, {"smiles": "COc1ccc2[nH]c3c(c2c1)CCN(C(C)=O)C3C", "note": "(stereo not drawn) [Example #3, 1-Methyl-2-N-Acetyl-6-Methoxy-1,2,3,4-Tetrahydro-β-Carboline]", "values": [{"measurement": "inhibition of MCF-7 cell growth, by concentration", "setting": "[2]", "result": "inhibited MCF-7 cell growth at all concentrations"}, {"measurement": "inhibition of Hs0578t cell growth, by concentration", "setting": "[3]", "result": "All concentrations of these compounds were inhibitory to cell growth"}]}, {"smiles": "COc1ccc2[nH]c(Cc3ccccc3)c(CCNC(C)=O)c2c1", "note": "[Example #4, 2-Benzyl-3-Ethylacetamido-5-Methoxyindole]", "values": [{"measurement": "inhibition of MCF-7 cell growth, by concentration", "setting": "[2]", "result": "All concentrations of Example #4 were inhibitory to cell growth"}, {"measurement": "potency relative to melatonin (times more potent), MCF-7 cell growth", "setting": "[2]", "result": 60, "unit": "times"}, {"measurement": "inhibition of Hs0578t cell growth, by concentration", "setting": "[3]", "result": "inhibits Hs0578t cell growth at 10^-13 M and 10^-7 M"}, {"measurement": "comparative assessment of potency / maximal inhibition, Hs0578t cell growth", "setting": "[3]", "result": "appears to be the most potent inhibitor of Hs0578t cells"}]}, {"smiles": "CCC(=O)NCCc1c(Cc2ccccc2)[nH]c2ccccc12", "note": "[Example #5, 2-Benzyl-N-Propionyltryptamine]", "values": [{"measurement": "concentration at which the maximal effect was seen (MCF-7)", "setting": "[2]", "result": "10^-5 M"}, {"measurement": "inhibition of MCF-7 cell growth, by concentration", "setting": "[2]", "result": "inhibited cell growth at all concentrations except 10^-13 M, 10^-11 M and 10^-7 M"}, {"measurement": "inhibition of Hs0578t cell growth, by concentration", "setting": "[3]", "result": "no inhibition of Hs0578t cell growth was observed"}]}, {"smiles": "CC(=O)N1CCc2c([nH]c3ccccc23)C1", "note": "[Example #6, 2-N-Acetyl-1,2,3,4-Tetrahydro-β-Carboline]", "values": [{"measurement": "inhibition of MCF-7 cell growth, by concentration", "setting": "[2]", "result": "All concentrations except 10^-13 M and 10^-5 M were inhibitory to MCF-7 cell growth"}, {"measurement": "comparative assessment of potency / maximal inhibition, MCF-7 cell growth", "setting": "[2]", "result": "appears to be the most potent inhibitor of MCF-7 cell growth"}]}, {"smiles": "CC(=O)N1CCc2c([nH]c3ccc(OCc4ccccc4)cc23)C1C", "note": "(stereo not drawn) [Example #7, 1-Methyl-2-N-Acetyl-6-Benzyloxy-1,2,3,4-Tetrahydro-β-Carboline]", "values": [{"measurement": "inhibition of MCF-7 cell growth, by concentration", "setting": "[2]", "result": "All concentrations of Example #7 were inhibitory"}, {"measurement": "Emax at 1 fM", "setting": "[2]; Homo sapiens, MCF7, at 10^-15 M, read-out: maximal effect, inhibition (MCF-7 cell growth)", "result": 37, "unit": "%"}, {"measurement": "potency relative to melatonin (times more potent), MCF-7 cell growth", "setting": "[2]", "result": 100, "unit": "times"}, {"measurement": "inhibition of Hs0578t cell growth, by concentration", "setting": "[3]", "result": "All concentrations of these compounds were inhibitory to cell growth, with the exception of Example #7 at 10^-11 M"}, {"measurement": "pIC50", "setting": "[3]", "result": "~8.00"}]}, {"smiles": "CC(=O)NCCc1c(Cc2ccccc2)[nH]c2ccccc12", "note": "[Example #8, 2-Benzyl-3-Ethylacetamidoindole]", "values": [{"measurement": "pIC50", "setting": "[3]", "result": "~10.00"}]}, {"smiles": "CC(=O)NCCc1c(Cc2cccc3ccccc23)[nH]c2ccccc12", "note": "[Example #9]", "values": [{"measurement": "inhibition of MCF-7 cell growth, by concentration", "setting": "[2]", "result": "inhibition of MCF-7 cell growth at all concentrations for Examples #2 and 9, with the exceptions of Example #2 at 10^-13 M and Example #9 at 10^-13 M and 10^-5 M"}, {"measurement": "inhibition of Hs0578t cell growth, by concentration", "setting": "[3]", "result": "inhibits Hs0578t cell growth at 10^-5 M and 10^-7 M"}, {"measurement": "pIC50", "setting": "[3]", "result": "~8.40"}, {"measurement": "comparative assessment of potency / maximal inhibition, Hs0578t cell growth", "setting": "[3]", "result": "shows the best maximal inhibition of growth"}]}, {"smiles": "CC(=O)NCCc1c(Cc2ccc(C)cc2)[nH]c2ccccc12", "note": "[Example #10, 2-(4-Tolylmethyl)-3-Ethylacetamidoindole]", "values": [{"measurement": "inhibition of MCF-7 cell growth, by concentration", "setting": "[2]", "result": "inhibits MCF-7 cell growth at 10^-15 M, 10^-13 M, and 10^-11 M"}, {"measurement": "inhibition of Hs0578t cell growth, by concentration", "setting": "[3]", "result": "no inhibition of Hs0578t cell growth was observed"}]}, {"smiles": "COc1ccc(Cc2[nH]c3ccccc3c2CCNC(C)=O)cc1", "note": "[Example #11, 2-(4-Methoxyphenyl)Methyl-3-Ethylacetamidoindole]", "values": [{"measurement": "inhibition of MCF-7 cell growth, by concentration", "setting": "[2]", "result": "inhibits MCF-7 cell growth at 10^-15 M and 10^-13 M"}, {"measurement": "comparative assessment of potency / maximal inhibition, MCF-7 cell growth", "setting": "[2]", "result": "not only a highly potent compound, but it elicits an impressive maximal inhibitory response at a very low concentration"}, {"measurement": "inhibition of Hs0578t cell growth, by concentration", "setting": "[3]", "result": "no inhibition of Hs0578t cell growth was observed"}]}, {"smiles": "CC(=O)NCCc1c[nH]c2ccc(O)cc12", "note": "[N-acetylserotonin]", "values": [{"measurement": "melatonin blocking activity (frog skin lightening)", "setting": "[4]", "result": "melatonin blocking activity"}]}, {"smiles": "CC(=O)NCCc1c[nH]c2ccccc12", "note": "[N-acetyltryptamine]", "values": [{"measurement": "melatonin blocking activity (frog skin lightening)", "setting": "[4]", "result": "melatonin blocking activity"}, {"measurement": "antagonism of inhibitory effect of melatonin in chicken retina", "setting": "[5]", "result": "competitively antagonized the inhibitory effect of melatonin in the chicken retina"}]}, {"smiles": "COc1ccc2[nH]cc(CCNC(C)=O)c2c1", "note": "[melatonin, 5-methoxy-N-actyltryptamine]", "values": [{"measurement": "inhibition of growth of estrogen positive cell lines", "setting": "[6]", "result": "known to inhibit growth of estrogen positive cell lines"}, {"measurement": "inhibition of Hs0578t cell growth, by concentration", "setting": "[3]", "result": "no inhibitory effect in most experiments"}, {"measurement": "effect on mammary carcinogenesis", "setting": "[7]", "result": "melatonin administration has been shown to inhibit"}, {"measurement": "inhibition of growth of estrogen negative cell lines such as Hs0578t", "setting": "[8]", "result": "at high concentrations, can inhibit estrogen negative cell lines such as Hs0578t"}]}]}
